Assay results taken from patent US20230151037A1, “GPR40 AGONISTS” (Kallyope, Inc., priority 2020, published 2023).

molecular target: T1, human GPR40 (Homo sapiens, UniProt O14842); assay: Inositol phosphate accumulation assay (IP1 HTRF) in CHO-K1 cells expressing human GPR40; type: cell-based; conditions: 90 min
T1 construct: host or cells: CHO-K1
Description: CHO-K1 cells expressing human GPR40 were purchased from DiscoverX (95-1005C2). HEK293 cells expressing mouse FFAR1 were prepared using a mouse FFAR1 carrying plasmid purchased from OriGene Technologies (MR222997). The cells were transfected using Lipofectamine 2000 using manufacturer instructions and stable cell line was established from a single cell using geneticine selection. Assay ready frozen (ARF) cells were prepared and used throughout the study.
The assay was performed in a 384-well plate format using IP1 assay kit from Cis-Bio. ARF cells expressing FFAR1 (mouse and human) were thawed, washed and then plated in the appropriate medium (F12 based medium for CHO hFFAR1 and DMEM based medium for HEK293 mFFAR1-both were supplemented with 10% FBS and penicillin/streptomycin). 20 μL of 3.5×10^5 cells/mL were plated on a Poly D-Lysine coated 384-well white plate. The cells were then incubated for 16 hr at 37° C./5% CO2. After 16 hr the medium was removed and 15 μL of stimulation buffer containing the test compounds was added to the cells. The plates were then incubated for 90 min at 37° C./5% CO2. 5 μL of detection buffer (prepared as described in the IP-one kit) was added to each well and the plates were incubated at RT for 1 hr.
[…] was measured using ClarioSTAR plate reader, calculating the ratio between emissions at 665 nm and 620 nm (HTRF ratio). HTRF ratio for positive (Max) and negative (Min) controls were used to normalize HTRF data and generate values for % activity. EC50 and Max activity values were determined using a standard 4-parameter fit.

T1 sequence (O14842 whole entry): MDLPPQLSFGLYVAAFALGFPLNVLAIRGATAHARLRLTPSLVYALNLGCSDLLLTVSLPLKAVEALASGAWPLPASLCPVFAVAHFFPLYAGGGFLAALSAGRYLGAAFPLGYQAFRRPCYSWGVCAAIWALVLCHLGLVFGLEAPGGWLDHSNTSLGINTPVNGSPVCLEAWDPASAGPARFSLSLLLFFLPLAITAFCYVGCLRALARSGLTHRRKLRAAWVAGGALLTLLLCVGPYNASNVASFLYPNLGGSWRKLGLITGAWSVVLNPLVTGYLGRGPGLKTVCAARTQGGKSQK

| Compound | EC50 [nM] |
| --- | --- |
| COc1cc(-c2ccc(COc3cccc(C(CS(=O)(=O)O)C4CC4)c3)cc2CN(C(C)C)C(C)C)c(F)cn1 (stereo not drawn) [Compound 1, 2-cyclopropyl-2-(3-((3-((diisopropylamino)methyl)-4-(5-fluoro-2-methoxypyridin-4-yl)benzyl)oxy)phenyl)ethanesulfonic acid] | > 1000 |
| CCP(=O)(O)CC(c1cccc(OCc2ccc(-c3cc(OC)ncc3F)c(CN(C(C)C)C(C)C)c2)c1)C1CC1 (single isomer, unassigned) [Compound 20, (2-cyclopropyl-2-(3-((3-((diisopropylamino)methyl)-4-(5-fluoro-2-methoxypyridin-4-yl)benzyl)oxy)phenyl)ethyl)(ethyl)phosphinic acid] | > 1000 |
| COc1cc(-c2ccc(COc3cccc(C(C)CP(C)(=O)O)c3)cc2CN(C(C)C)C(C)C)c(F)cn1 (single isomer, unassigned) [Compound 36, (2-(3-((3-((diisopropylamino)methyl)-4-(5-fluoro-2-methoxypyridin-4-yl)benzyl)oxy)phenyl)propyl)(methyl)phosphinic acid] | > 1000 |
| COc1cc(-c2ccc(COc3cccc(C(CP(C)(=O)O)C4CC4)c3)c(CN(C(C)C)C(C)C)c2)c(F)cn1 (stereo not drawn) [Compound 16, (2-cyclopropyl-2-(3-((2-((diisopropylamino)methyl)-4-(5-fluoro-2-methoxypyridin-4-yl)benzyl)oxy)phenyl)ethyl)(methyl)phosphinic acid] | > 1000 |
| CCP(=O)(O)CC(c1cccc(OCc2ccc(-c3cc(OC)ncc3F)c(CN(C(C)C)C(C)C)c2)c1)C1CC1 (single isomer, unassigned) [Compound 17, (2-cyclopropyl-2-(3-((3-((diisopropylamino)methyl)-4-(5-fluoro-2-methoxypyridin-4-yl)benzyl)oxy)phenyl)ethyl)(ethyl)phosphinic acid] | > 1000 |
| COc1cc(-c2ccc(COc3cccc(C(CS(=O)(=O)O)C4CC4)c3)cc2CN(C(C)C)C(C)C)c(F)cn1 (single isomer, unassigned) [Compound 14, 2-cyclopropyl-2-(3-((3-((diisopropylamino)methyl)-4-(5-fluoro-2-methoxypyridin-4-yl)benzyl)oxy)phenyl)ethanesulfonic acid] | > 1000 |
| COc1cc(-c2ccc(COc3cccc(C(CP(C)(=O)O)C4CC4)c3)cc2CN(C(C)C)C(C)C)c(F)cn1 (single isomer, unassigned) [Compound 12, (2-cyclopropyl-2-(3-((3-((diisopropylamino)methyl)-4-(5-fluoro-2-methoxypyridin-4-yl)benzyl)oxy)phenyl)ethyl)(methyl)phosphinic acid] | > 1000 |
| COc1cc(-c2ccc(COc3cccc(C(CP(=O)(O)OC)C4CC4)c3)cc2CN(C(C)C)C(C)C)c(F)cn1 (stereo not drawn) [Compound 5, methyl hydrogen (2-cyclopropyl-2-(3-((3-((diisopropylamino)methyl)-4-(5-fluoro-2-methoxypyridin-4-yl)benzyl)oxy)phenyl)ethyl)phosphonate] | > 1000 |
| CCP(=O)(O)CC(c1cccc(OCc2ccc(-c3cc(OC)ncc3F)c(CN(C(C)C)C(C)C)c2)c1)C1CC1 (single isomer, unassigned) [Compound 18, (2-cyclopropyl-2-(3-((3-((diisopropylamino)methyl)-4-(5-fluoro-2-methoxypyridin-4-yl)benzyl)oxy)phenyl)ethyl)(ethyl)phosphinic acid] | > 1000 |
| COc1cc(-c2ccc(COc3cccc([C@H](C4CC4)[C@@](C)(F)C(=O)NS(C)(=O)=O)c3)cc2CN(C(C)C)C(C)C)c(F)cn1 [Compound 4, (2R,3S)-3-cyclopropyl-3-(3-((3-((diisopropylamino)methyl)-4-(5-fluoro-2-methoxypyridin-4-yl)benzyl)oxy)phenyl)-2-fluoro-2-methyl-N-(methylsulfonyl)propanamide] | ≤ 50 |
| COc1cc(-c2ccc(COc3cccc(C(C4CC4)C(C)P(=O)(O)OC)c3)cc2CN(C(C)C)C(C)C)c(F)cn1 (stereo not drawn) [Compound 7, methyl hydrogen (1-cyclopropyl-1-(3-((3-((diisopropylamino)methyl)-4-(5-fluoro-2-methoxypyridin-4-yl)benzyl)oxy)phenyl)propan-2-yl)phosphonate] | > 1000 |
| COc1cc(-c2ccc(OCc3cccc(C(CP(C)(=O)O)C4CC4)c3)cc2CN(C(C)C)C(C)C)c(F)cn1 (stereo not drawn) [Compound 21, (2-cyclopropyl-2-(3-((3-((diisopropylamino)methyl)-4-(5-fluoro-2-methoxypyridin-4-yl)phenoxy)methyl)phenyl)ethyl)(methyl)phosphinic acid] | 50 to 250 |
| COc1cc(-c2ccc(OCc3cccc(C(CP(=O)(O)O)C4CC4)c3)cc2CN(C(C)C)C(C)C)c(F)cn1 (stereo not drawn) [Compound 9, (2-cyclopropyl-2-(3-((3-((diisopropylamino)methyl)-4-(5-fluoro-2-methoxypyridin-4-yl)phenoxy)methyl)phenyl)ethyl)phosphonic acid] | > 1000 |
| COc1cc(-c2ccc(COc3cccc(C(C4CC4)C(C)(C)P(=O)(O)O)c3)cc2CN(C(C)C)C(C)C)c(F)cn1 (stereo not drawn) [Compound 22, (1-cyclopropyl-1-(3-((3-((diisopropylamino)methyl)-4-(5-fluoro-2-methoxypyridin-4-yl)benzyl)oxy)phenyl)-2-methylpropan-2-yl)phosphonic acid] | > 1000 |
| COc1cc(-c2ccc(COc3cccc(C(C4CC4)C(C)P(=O)(O)O)c3)cc2CN(C(C)C)C(C)C)c(F)cn1 (stereo not drawn) [Compound 6, (1-cyclopropyl-1-(3-((3-((diisopropylamino)methyl)-4-(5-fluoro-2-methoxypyridin-4-yl)benzyl)oxy)phenyl)propan-2-yl)phosphonic acid] | > 1000 |
| CCP(=O)(O)CC(c1cccc(OCc2ccc(-c3cc(OC)ncc3F)c(CN(C(C)C)C(C)C)c2)c1)C1CC1 (single isomer, unassigned) [Compound 19, (2-cyclopropyl-2-(3-((3-((diisopropylamino)methyl)-4-(5-fluoro-2-methoxypyridin-4-yl)benzyl)oxy)phenyl)ethyl)(ethyl)phosphinic acid] | > 1000 |
| COc1cc(-c2ccc(COc3cccc(C(CS(=O)(=O)O)C4CC4)c3)cc2CN(C(C)C)C(C)C)c(F)cn1 (single isomer, unassigned) [Compound 15, 2-cyclopropyl-2-(3-((3-((diisopropylamino)methyl)-4-(5-fluoro-2-methoxypyridin-4-yl)benzyl)oxy)phenyl)ethanesulfonic acid] | > 1000 |

Now from value to compound:

| EC50 [nM] | Compound |
| --- | --- |
| ≤ 50 | COc1cc(-c2ccc(COc3cc(C(C)CP(C)(=O)O)ccn3)cc2[C@@H](OC)C(C)(C)C)c(F)cn1 (single isomer, unassigned) [Compound 38] |
| ≤ 50 | COc1ccc(F)c(-c2ccc(COc3cc(C(C)CP(C)(=O)O)ccn3)cc2[C@@H](OC)C(C)(C)C)c1 (single isomer, unassigned) [Compound 40, ((R)-2-(2-((2′-fluoro-5′-methoxy-2-((S)-1-methoxy-2,2-dimethylpropyl)-[1,1′-biphenyl]-4-yl)methoxy)pyridin-4-yl)propyl)(methyl)phosphinic acid or ((S)-2-(2-((2′-fluoro-5′-methoxy-2-((S)-1-methoxy-2,2-dimethylpropyl)-[1,1′-biphenyl]-4-yl)methoxy)pyridin-4-yl)propyl)(methyl)phosphinic acid] |
| ≤ 50 | COc1ccc(F)c(-c2ccc(COc3cc([C@@H](CP(C)(=O)O)C4CC4)ccn3)cc2[C@@H](OC)C(C)(C)C)c1 [Compound 27, ((S)-2-cyclopropyl-2-(2-((2′-fluoro-5′-methoxy-2-((S)-1-methoxy-2,2-dimethylpropyl)-[1,1′-biphenyl]-4-yl)methoxy)pyridin-4-yl)ethyl)(methyl)phosphinic acid] |
| ≤ 50 | COc1cc(-c2ccc(COc3cccc(C[C@@H](C)P(C)(=O)O)c3)cc2[C@@H](OC)C(C)(C)C)c(F)cn1 [Compound 41, ((R)-1-(3-((4-(5-fluoro-2-methoxypyridin-4-yl)-3-((S)-1-methoxy-2,2-dimethylpropyl)benzyl)oxy)phenyl)propan-2-yl)(methyl)phosphinic acid] |
| ≤ 50 | COc1cc(-c2ccc(COc3cc([C@@H](CP(C)(=O)O)C4CC4)ccn3)cc2[C@@H](OC)C(C)(C)C)c(F)cn1 [Compound 28, ((S)-2-cyclopropyl-2-(2-((4-(5-fluoro-2-methoxypyridin-4-yl)-3-((S)-1-methoxy-2,2-dimethylpropyl)benzyl)oxy)pyridin-4-yl)ethyl)(methyl)phosphinic acid] |
| ≤ 50 | COc1cccc(-c2ccc(COc3cc([C@@H](CP(C)(=O)O)C4CC4)ccn3)cc2[C@@H](OC)C(C)(C)C)c1 [Compound 30, ((S)-2-cyclopropyl-2-(2-((3′-methoxy-2-((S)-1-methoxy-2,2-dimethylpropyl)-[1,1′-biphenyl]-4-yl)methoxy)pyridin-4-yl)ethyl)(methyl)phosphinic acid] |
| ≤ 50 | COc1cc(-c2ccc(COc3cc(C(C)CP(C)(=O)O)ccn3)cc2[C@@H](OC)C(C)(C)C)c(F)cn1 (single isomer, unassigned) [Compound 37] |
